Laboratory results as given in ChEMBL document CHEMBL1137601, “Catalysis of zinc transfer by D-penicillamine to secondary chelators” (J Med Chem, 2007).

Experiments:
[1] = target: T1, Carboxypeptidase A1 (Bos taurus) (UniProt P00730); assay: Inhibition of bovine ZnCPD pretreated at 0.25 mM assessed as residual enzyme activity in presence of 1 mM ethylenediaminetetraacetic acid within 20 mins
T1 sequence (whole entry): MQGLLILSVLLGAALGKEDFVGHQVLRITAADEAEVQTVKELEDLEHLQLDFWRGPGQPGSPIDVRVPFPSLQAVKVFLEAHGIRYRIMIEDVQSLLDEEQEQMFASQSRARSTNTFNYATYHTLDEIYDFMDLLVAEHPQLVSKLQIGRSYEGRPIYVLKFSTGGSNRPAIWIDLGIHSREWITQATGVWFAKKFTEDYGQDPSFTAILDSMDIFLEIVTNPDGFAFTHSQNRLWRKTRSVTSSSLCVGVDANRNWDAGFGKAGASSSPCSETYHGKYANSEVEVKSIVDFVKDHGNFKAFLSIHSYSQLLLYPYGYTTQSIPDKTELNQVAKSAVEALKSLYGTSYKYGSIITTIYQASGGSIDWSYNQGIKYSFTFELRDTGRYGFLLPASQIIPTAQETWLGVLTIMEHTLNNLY

[2] = target: T1, Carboxypeptidase A1 (Bos taurus); assay: Inhibition of bovine ZnCPD pretreated at 0.25 mM assessed as residual enzyme activity in presence of 2.5 uM thionenin after 17 mins
[3] = target: T1, Carboxypeptidase A1 (Bos taurus); assay: Inhibition of bovine ZnCPD pretreated for 200 seconds at 1.5 mM assessed as transfer of zinc(II) from ZnCPD to chelator 4-(2-pyridylazo)-resorcinol; design: scale not given: the % may be the effect or the level left
[4] = target: T1, Carboxypeptidase A1 (Bos taurus); assay: Inhibition of bovine ZnCPD pretreated at 5 mM assessed as residual enzyme activity in presence of 1 mM ethylenediaminetetraacetic acid within 7 mins

Molecule `CC(C)(S)[C@@H](N)C(=O)O` has an Activity [1] of 1%, an Activity [2] of 1.5% and an Activity [3] of 45%. The Activity [4] was 0.1%.
